These results are taken from ChEMBL document CHEMBL4270560, “Novel curcumin analogue hybrids: Synthesis and anticancer activity” (Eur J Med Chem, 2018).

The structures appear in SMILES notation.

Assay [1] has as its system SGC-7901. The assay can be described thus: Induction of mitochondrial membrane depolarization in human SGC7901 cells assessed as cells with mitochondrial membrane potential loss at 1200 nM after 48 hrs in presence of NAC by JC-1 staining based flow cytometric analysis (reference value: 1.65%). The assay is classed as functional. Background: A flow cytometer gives signals particle by particle.

The subject of assay [2] is SGC-7901. The assay can be described thus: Induction of mitochondrial membrane depolarization in human SGC7901 cells assessed as cells with intact mitochondrial membrane potential at 1200 nM after 48 hrs in presence of NAC by JC-1 staining based flow cytometric analysis (reference value: 98%). Type of assay: functional.
Assay [3] concerns SGC-7901. The assay can be described thus: Induction of apoptosis in human SGC7901 cells assessed as necrotic cells at 600 nM after 48 hrs by Annexin V-FITC/propidium iodide staining based flow cytometric analysis (reference value: 0.052%). Type of assay: functional.
Assay [4] deals with SGC-7901. Nature of the assay: Induction of apoptosis in human SGC7901 cells assessed as decrease in cyclin D1 level after 48 hrs by Western blot analysis. The assay is classed as functional, cell-based. On the technique in general: Immunoblotting shows a protein as a band on a membrane.
For assay [5], the system named is SGC-7901. Nature of the assay: Induction of apoptosis in human SGC7901 cells assessed as viable cells at 1000 nM after 48 hrs in presence of NAC by Annexin V-FITC/propidium iodide staining based flow cytometric analysis (reference value: 96%). The assay is classed as functional. The following applies: SGC-7901, 48 h, read-out: Activity.

`COc1cc(OC)c2c(=O)c(OCCCOc3ccccc3/C=C/C(=O)/C=C/c3ccccn3)c(-c3cc(OC)c(OC)c(OC)c3)oc2c1`: the Activity was 1.74% in the assay with SGC-7901 [1], 97.5% with SGC-7901 [2], 0.132% with SGC-7901 [3] and “Dose-dependent effect” in the assay on SGC-7901 [4]. Besides, the viability at 1 µM in the assay with SGC-7901 [5] came to 94.1%.
